# Reference: patent EP0769956B1, “USE OF A GnRH ANTAGONIST FOR THE PREPARATION OF A MEDICAMENT FOR THE TREATMENT OF GONADAL-STEROID CONDITIONS” (THE MEDICAL COLLEGE OF HAMPTON ROADS, priority 1994, dated 2000)
# Where “and” joins values, the source holds several entries; their conditions need not be identical. Equal entries are not always repeated.
# Columns and labels:
# in vivo = assay: in vivo; parameters: species or system cynomolgus monkeys; settings: cynomolgus monkey, sc
# Description: Eleven adult female cynomolgus monkeys having regular and presumably ovulatory menstrual cycles were entered into the study. Body weights were determined monthly. Menstrual bleeding and spotting were recorded daily by visual inspection of external genitalia and insertion of vaginal swabs using a saline moistened cotton-tipped applicator, respectively. Blood samples were collected from femoral vessels and the serum stored for subsequent RIA of estradiol and progesterone. Coefficients of variation for these assays were: 7.4 and 11.1; and 7.0 and 10.9%, respectively, for within and between assays. The GnRH antagonist ([…]) used was Nal-Glu: [[…]. The design was progressive in that all eleven monkeys initially received […] at 0.05 mg/kg starting on day 2 of the menstrual cycle and continuing daily until results of the progesterone challenge test and estradiol levels in circulation indicated the need to raise the dose. Concurrently, a pair of progesterone-loaded silastic implants were inserted sc during […] treatment from day 20 and 30, and then removed. If withdrawal menses occurred during the next week, the individual Nal-Glu dose was raised to 0.1 mg/kg daily. On […] treatment day 50, the 10 day progesterone challenge test was repeated for all monkeys. […] Again, amenorrhea or withdrawal menses was recorded. […]
# pituitary-ovarian axis = settings: sufficient single dose; monkeys; cited from earlier work
# [1] = tested on: ovarian estrogen secretion; assay: Part I dose-finding study: RIA of serum estradiol during 14 days of daily im treatment; format: in vivo, cynomolgus monkeys; settings: 0.1 mg/kg im daily; some individual primates, predominately
# Description: (§1) Eleven adult female cynomolgus monkeys having regular and presumably ovulatory menstrual cycles were entered into the study. Body weights were determined monthly. Menstrual bleeding and spotting were recorded daily by visual inspection of external genitalia and insertion of vaginal swabs using a saline moistened cotton-tipped applicator, respectively. Blood samples were collected from femoral vessels and the serum stored for subsequent RIA of estradiol and progesterone. Coefficients of variation for these assays were: 7.4 and 11.1; and 7.0 and 10.9%, respectively, for within and between assays. The GnRH antagonist (GnRHant) used was Nal-Glu: [Ac-D2NAL, 4ClDPhe^2, D3Pal^3, Arg^5, DGlu^6(AA), DAla^10]-GnRH.
# In Part I of the study, the object was to perform a brief dose-finding study that indicated residual serum estradiol levels in intact primates previously illustrating regular menstrual cycles. Specifically sought was an approximation of the minimal daily im dose of Nal-Glu sufficient to suppress circulating estradiol levels into the target range: less than 45 pg/ml but more than 35 pg/ml. Beginning on day 2 of the menstrual cycle, Nal-Glu GnRHant, suspended in sesame oil, was administered between 9 and 10 am in doses of 0.1 (n = 5) and 0.3 mg/kg (n = 6) for 14 days. Femoral blood was obtained daily under ketamine anesthesia. […]
# [2] = tested on: ovarian estrogen secretion; assay: Part II individualized dose titering: RIA of serum estradiol every 10 days; format: in vivo, cynomolgus monkeys
# Description: as §1
# (§2) After a 60 day wash-out interval, the Part II experimental design had two objectives: 1) attempt to titer the GnRHant dose to individual monkeys so that residual ovarian estrogen secretion was often within the target range (estradiol at 35 to 45 pg/ml) in as many of the blood samples as possible; and 2) perform periodic progesterone challenge tests wherein withdrawal bleeding indicates significant estrogen-induced endometrial proliferation (i.e. excessive estrogenic influence) versus amenorrhea (the absence of progesterone withdrawal bleeding) as an indicator that the GnRHant dose and, in turn, the tonic ovarian estrogen production was indicative of a controlled estrogenic milieu.
# (§3) The design was progressive in that all eleven monkeys initially received Nal-Glu GnRHant at 0.05 mg/kg starting on day 2 of the menstrual cycle and continuing daily until results of the progesterone challenge test and estradiol levels in circulation indicated the need to raise the dose. Concurrently, a pair of progesterone-loaded silastic implants were inserted sc during GnRHant treatment from day 20 and 30, and then removed. If withdrawal menses occurred during the next week, the individual Nal-Glu dose was raised to 0.1 mg/kg daily. On GnRHant treatment day 50, the 10 day progesterone challenge test was repeated for all monkeys. Those primates who were amenorrheic remained on this dose of Nal-Glu; any "bleeders" were to be shifted to a higher dose of GnRHant at 0.2 mg/kg daily through treatment day 90, with the final progesterone challenge test given to all monkeys on days 80 to 90. Again, amenorrhea or withdrawal menses was recorded.
# Femoral blood samples were collected every 10 days through the study for RIA of estradiol and progesterone.
# [3] = tested on: estrogen-induced endometrial proliferation; assay: Progesterone challenge test (withdrawal bleeding versus amenorrhea, spotting); format: in vivo, cynomolgus monkeys
# Description: as §1, §2, §3
# For definition, withdrawal bleeding was scored when blood was on the external genitalia for two or more consecutive days within the week following progesterone withdrawal. Spotting was scored when blood was evident only by coloration of the cotton swab upon insertion into the vagina.
compound,measurement,setting,value
CC(=O)[C@H]1CC[C@H]2[C@@H]3CCC4=CC(=O)CC[C@]4(C)[C@H]3CC[C@]12C [progesterone],concentration at 240 h,in vivo,6.4 ± 0.6 ng/mL
D-Ac-D-2-Nal^1-DpClPhe^2-D-3-Pal^3-Ser^4-NiLys^5-D-NicLys^6-Leu^7-ILys^8-Pro^9-D-Ala^10 [antide],effect on the pituitary-ovarian axis,pituitary-ovarian axis,immediate and sustained inhibition of the pituitary-ovarian axis
"[Ac-D2NAL, 4ClDPhe^2, D3Pal^3, Arg^5, DGlu^6(AA), DAla^10]-GnRH [Nal-Glu]",serum estradiols,[1],< 25 pg/mL
same,mean serum estradiol levels,"[2]; 0.05 mg/kg im daily, the two primates with withdrawal amenorrhea, target zone 35 to 45 pg/ml",in or near the target zone
same,estradiol suppression,"[2]; 0.2 mg/kg im daily, the lone resistant monkey",under 20 pg/ml
same,mean circulating estradiol levels,"[2]; at third progesterone challenge test, all females except the one given 0.2 mg/kg im daily, target zone 35 to 45 pg/ml",in or near the target zone
same,mean serum estradiol concentrations,"[2]; dose raised to 0.1 mg/kg im daily from day 31, 8 monkeys",approximately 40 pg/ml
same,monkeys achieving withdrawal amenorrhea,"[3]; second progesterone challenge test, only the monkeys raised to 0.1 mg/kg im daily",8 of 9
same,Incidence of Spotting,[3]; week of progesterone withdrawal days 31-37,13 days
same,Amenorrhea Achieved,"[3]; week of progesterone withdrawal days 31-37, first challenge, all eleven monkeys on 0.05 mg/kg im daily",two and 2/11
same,Incidence of Spotting,[3]; week of progesterone withdrawal days 61-67,12 days
same,Amenorrhea Achieved,"[3]; week of progesterone withdrawal days 61-67, second challenge, 0.05 or 0.1 mg/kg im daily",10/11
same,Incidence of Spotting,[3]; week of progesterone withdrawal days 91-97,0 days
same,Amenorrhea Achieved,"[3]; week of progesterone withdrawal days 91-97, third challenge, 0.05, 0.1 or 0.2 mg/kg im daily",eleven and 11/11
